This note sets out measurements from patent US11981658B2, “Substituted aminopyridine compounds as EGFR inhibitors” (YUHAN CORPORATION, priority 2021, dated 2024).

Where two headings read alike, the source gives them in different places.

Assay [1] addresses EGFR L858R/T790M/C797S (Homo sapiens, UniProt P00533, C797S/L858R/T790M). The assay is described as follows: Biochemical EGFR kinase inhibition assay (Lance Ultra TR-FRET), triple mutant L858R/T790M/C797S. The essentials: (§1)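 Kinase activity is measured by TR-FRET phosphopeptide detection. Compounds span 0.003 μM to 10 μM; the 1 h reaction at room temperature is quenched with EDTA, then labelled antibody (2 nM) is incubated 60 min before reading.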

Assay [2] addresses EGFR wildtype (WT) (Homo sapiens, UniProt P00533). The assay is described as follows: Biochemical EGFR kinase inhibition assay (Lance Ultra TR-FRET), wildtype. The essentials: as §1
For orientation: In TR-FRET formats the signal depends on donor and acceptor labels being close together.

Assay [3] has as its target EGFR L858R/C797S (Homo sapiens, UniProt P00533, C797S/L858R). The assay is described as follows: Biochemical EGFR kinase inhibition assay (Lance Ultra TR-FRET), double mutant L858R/C797S. A digest of the protocol: as §1
The target in assay [4] is EGFR Del19/C797S (Homo sapiens, UniProt P00533, C797S/DEL746-750). The assay is described as follows: Biochemical EGFR kinase inhibition assay (Lance Ultra TR-FRET), double mutant del19/C797S. The essentials:
as §1

Assay [5] addresses EGFR Del19/T790M/C797S (Homo sapiens, UniProt P00533, C797S/DEL746-750/T790M). Nature of the assay: Biochemical EGFR kinase inhibition assay (Lance Ultra TR-FRET), triple mutant del19/T790M/C797S. The essentials:
as §1

Setting [6] is: IC50 L858R/T790M/C797S (nM), 100 μM ATP.
[7] abbreviates: ATP at Km, read-out: IC50 WT (nM), Km ATP.
Where [8] appears, read: ATP at Km, read-out: IC50 L858R/C797S (nM), Km ATP.
Where [9] appears, read: IC50 L858R/C797S (nM), 100 μM ATP.
The mark [10] stands for this setting: ATP at Km, read-out: IC50 Del19/C797S (nM), Km ATP.
The mark [11] stands for this setting: IC50 Del19/C797S (nM), 100 μM ATP.
Where [12] appears, read: ATP at Km, read-out: IC50 Del19/T790M/C797S (nM), Km ATP.
Where [13] appears, read: IC50 Del19/T790M/C797S (nM), 100 μM ATP.
Where [14] appears, read: Km ATP, read-out: IC50 L858R/T790M/C797S (nM), Km ATP.
The mark [15] stands for this setting: Km ATP, read-out: IC50 Del19/T790M/C797S (nM), Km ATP.
The mark [16] stands for this setting: Km ATP, read-out: IC50 WT (nM), Km ATP.
[17] abbreviates: Km ATP, read-out: IC50 L858R/C797S (nM), Km ATP.
[18] abbreviates: Km ATP, read-out: IC50 Del19/C797S (nM), Km ATP.
The mark [19] stands for this setting: Km ATP, read-out: IC50 L858R/T790M/C797S (nM) Km ATP.
[20] abbreviates: Km ATP, read-out: IC50 WT (nM) Km ATP.
The mark [21] stands for this setting: Km ATP, read-out: IC50 L858R/C797S (nM) Km ATP.
[22] abbreviates: Km ATP, read-out: IC50 Del19/C797S (nM) Km ATP.
Where [23] appears, read: Km ATP, read-out: IC50 Del19/T790M/C797S (nM) Km ATP.

Sequence of EGFR Del19/C797S (P00533 with tags, fused parts or gaps DEL746-750/C797S): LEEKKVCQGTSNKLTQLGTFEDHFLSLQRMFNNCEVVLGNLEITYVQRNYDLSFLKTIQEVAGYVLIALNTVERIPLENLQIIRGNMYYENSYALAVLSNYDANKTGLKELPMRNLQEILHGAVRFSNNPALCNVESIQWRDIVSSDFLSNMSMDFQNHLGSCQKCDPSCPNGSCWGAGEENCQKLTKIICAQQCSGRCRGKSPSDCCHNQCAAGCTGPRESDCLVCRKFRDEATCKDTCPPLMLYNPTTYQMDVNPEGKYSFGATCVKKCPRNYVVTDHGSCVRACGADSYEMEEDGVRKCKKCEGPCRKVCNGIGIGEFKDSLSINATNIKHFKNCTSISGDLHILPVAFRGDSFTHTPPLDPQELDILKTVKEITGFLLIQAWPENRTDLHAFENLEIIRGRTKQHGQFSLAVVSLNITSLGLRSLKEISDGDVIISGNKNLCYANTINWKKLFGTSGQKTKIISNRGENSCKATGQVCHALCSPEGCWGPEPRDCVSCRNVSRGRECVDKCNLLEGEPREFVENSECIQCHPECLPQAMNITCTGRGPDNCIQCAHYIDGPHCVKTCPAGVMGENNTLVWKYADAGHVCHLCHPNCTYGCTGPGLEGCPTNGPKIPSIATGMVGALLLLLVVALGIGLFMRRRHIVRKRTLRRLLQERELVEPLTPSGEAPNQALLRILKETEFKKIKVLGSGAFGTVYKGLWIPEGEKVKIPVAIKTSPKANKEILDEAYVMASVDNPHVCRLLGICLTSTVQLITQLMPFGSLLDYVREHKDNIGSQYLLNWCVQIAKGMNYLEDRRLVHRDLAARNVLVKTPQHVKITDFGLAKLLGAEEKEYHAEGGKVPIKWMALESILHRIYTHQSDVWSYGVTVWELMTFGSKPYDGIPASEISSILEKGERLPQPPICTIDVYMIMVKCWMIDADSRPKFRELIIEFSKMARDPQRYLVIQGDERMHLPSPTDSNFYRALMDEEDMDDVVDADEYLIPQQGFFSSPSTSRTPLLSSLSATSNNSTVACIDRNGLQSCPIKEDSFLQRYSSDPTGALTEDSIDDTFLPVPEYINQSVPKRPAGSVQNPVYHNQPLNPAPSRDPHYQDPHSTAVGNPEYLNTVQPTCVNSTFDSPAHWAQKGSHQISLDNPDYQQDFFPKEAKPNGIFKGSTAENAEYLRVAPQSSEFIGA
Sequence of EGFR wildtype (WT) (P00533 25-1210): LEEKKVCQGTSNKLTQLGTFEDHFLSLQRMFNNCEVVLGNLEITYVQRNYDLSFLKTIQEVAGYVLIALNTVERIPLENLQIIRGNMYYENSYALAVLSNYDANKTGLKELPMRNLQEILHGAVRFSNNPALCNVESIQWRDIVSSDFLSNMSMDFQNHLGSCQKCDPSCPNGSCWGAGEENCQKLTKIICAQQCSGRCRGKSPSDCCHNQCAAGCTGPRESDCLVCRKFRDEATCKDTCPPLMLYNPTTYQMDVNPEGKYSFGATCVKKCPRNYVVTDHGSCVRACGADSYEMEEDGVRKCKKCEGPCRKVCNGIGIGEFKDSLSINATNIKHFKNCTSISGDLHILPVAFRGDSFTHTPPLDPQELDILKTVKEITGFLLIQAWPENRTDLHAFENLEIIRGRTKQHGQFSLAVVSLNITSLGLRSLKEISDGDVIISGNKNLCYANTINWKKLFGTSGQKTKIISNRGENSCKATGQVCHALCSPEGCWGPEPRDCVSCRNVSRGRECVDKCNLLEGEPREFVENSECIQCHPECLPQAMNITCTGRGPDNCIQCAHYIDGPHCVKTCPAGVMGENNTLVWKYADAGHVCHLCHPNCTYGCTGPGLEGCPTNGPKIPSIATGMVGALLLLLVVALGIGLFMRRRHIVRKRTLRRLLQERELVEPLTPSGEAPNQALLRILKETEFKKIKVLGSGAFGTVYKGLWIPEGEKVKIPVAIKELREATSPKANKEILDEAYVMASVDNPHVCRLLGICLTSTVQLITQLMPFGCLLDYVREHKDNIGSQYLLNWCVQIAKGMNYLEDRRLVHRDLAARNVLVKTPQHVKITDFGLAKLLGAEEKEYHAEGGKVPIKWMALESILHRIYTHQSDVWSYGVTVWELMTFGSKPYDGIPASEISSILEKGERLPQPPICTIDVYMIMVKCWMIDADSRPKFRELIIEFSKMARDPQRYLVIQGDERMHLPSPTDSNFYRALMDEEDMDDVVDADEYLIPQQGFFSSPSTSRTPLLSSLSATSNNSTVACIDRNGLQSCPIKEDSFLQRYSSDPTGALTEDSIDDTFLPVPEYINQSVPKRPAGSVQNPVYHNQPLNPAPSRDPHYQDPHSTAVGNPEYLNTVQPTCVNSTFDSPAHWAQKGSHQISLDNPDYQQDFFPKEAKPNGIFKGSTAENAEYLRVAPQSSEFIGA
Sequence of EGFR L858R/T790M/C797S (P00533 25-1210 T790M/C797S/L858R): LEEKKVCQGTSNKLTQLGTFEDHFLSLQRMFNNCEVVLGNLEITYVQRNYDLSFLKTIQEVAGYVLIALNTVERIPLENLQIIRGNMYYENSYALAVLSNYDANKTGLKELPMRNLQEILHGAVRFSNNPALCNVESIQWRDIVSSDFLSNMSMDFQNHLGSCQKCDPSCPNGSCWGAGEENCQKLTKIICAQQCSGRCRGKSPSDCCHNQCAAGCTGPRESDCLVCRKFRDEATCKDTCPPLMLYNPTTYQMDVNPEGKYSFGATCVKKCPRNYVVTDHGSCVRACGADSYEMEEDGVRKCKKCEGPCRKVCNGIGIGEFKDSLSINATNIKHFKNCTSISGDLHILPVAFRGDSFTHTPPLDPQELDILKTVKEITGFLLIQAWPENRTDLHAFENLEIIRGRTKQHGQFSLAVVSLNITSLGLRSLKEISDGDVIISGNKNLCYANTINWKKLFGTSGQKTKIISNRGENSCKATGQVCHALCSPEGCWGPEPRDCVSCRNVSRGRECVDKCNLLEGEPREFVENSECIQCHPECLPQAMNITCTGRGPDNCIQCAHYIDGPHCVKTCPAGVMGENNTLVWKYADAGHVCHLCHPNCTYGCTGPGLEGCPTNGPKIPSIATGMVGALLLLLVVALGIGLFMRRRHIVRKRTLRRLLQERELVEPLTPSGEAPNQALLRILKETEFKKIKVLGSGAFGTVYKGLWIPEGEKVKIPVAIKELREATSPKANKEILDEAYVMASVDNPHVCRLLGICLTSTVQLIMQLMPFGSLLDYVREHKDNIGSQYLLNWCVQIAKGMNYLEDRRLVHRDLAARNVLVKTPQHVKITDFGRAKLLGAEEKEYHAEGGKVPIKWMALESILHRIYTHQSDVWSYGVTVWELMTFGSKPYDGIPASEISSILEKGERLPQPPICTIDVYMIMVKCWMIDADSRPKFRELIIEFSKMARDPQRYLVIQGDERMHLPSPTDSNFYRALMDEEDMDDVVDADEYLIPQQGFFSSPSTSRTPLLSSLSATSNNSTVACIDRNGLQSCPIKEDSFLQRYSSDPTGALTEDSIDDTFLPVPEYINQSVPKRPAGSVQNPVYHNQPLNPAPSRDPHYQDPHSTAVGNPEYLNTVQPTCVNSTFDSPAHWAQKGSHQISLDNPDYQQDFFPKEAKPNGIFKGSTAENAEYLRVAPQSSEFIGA
Sequence of EGFR Del19/T790M/C797S (P00533 with tags, fused parts or gaps DEL746-750/T790M/C797S): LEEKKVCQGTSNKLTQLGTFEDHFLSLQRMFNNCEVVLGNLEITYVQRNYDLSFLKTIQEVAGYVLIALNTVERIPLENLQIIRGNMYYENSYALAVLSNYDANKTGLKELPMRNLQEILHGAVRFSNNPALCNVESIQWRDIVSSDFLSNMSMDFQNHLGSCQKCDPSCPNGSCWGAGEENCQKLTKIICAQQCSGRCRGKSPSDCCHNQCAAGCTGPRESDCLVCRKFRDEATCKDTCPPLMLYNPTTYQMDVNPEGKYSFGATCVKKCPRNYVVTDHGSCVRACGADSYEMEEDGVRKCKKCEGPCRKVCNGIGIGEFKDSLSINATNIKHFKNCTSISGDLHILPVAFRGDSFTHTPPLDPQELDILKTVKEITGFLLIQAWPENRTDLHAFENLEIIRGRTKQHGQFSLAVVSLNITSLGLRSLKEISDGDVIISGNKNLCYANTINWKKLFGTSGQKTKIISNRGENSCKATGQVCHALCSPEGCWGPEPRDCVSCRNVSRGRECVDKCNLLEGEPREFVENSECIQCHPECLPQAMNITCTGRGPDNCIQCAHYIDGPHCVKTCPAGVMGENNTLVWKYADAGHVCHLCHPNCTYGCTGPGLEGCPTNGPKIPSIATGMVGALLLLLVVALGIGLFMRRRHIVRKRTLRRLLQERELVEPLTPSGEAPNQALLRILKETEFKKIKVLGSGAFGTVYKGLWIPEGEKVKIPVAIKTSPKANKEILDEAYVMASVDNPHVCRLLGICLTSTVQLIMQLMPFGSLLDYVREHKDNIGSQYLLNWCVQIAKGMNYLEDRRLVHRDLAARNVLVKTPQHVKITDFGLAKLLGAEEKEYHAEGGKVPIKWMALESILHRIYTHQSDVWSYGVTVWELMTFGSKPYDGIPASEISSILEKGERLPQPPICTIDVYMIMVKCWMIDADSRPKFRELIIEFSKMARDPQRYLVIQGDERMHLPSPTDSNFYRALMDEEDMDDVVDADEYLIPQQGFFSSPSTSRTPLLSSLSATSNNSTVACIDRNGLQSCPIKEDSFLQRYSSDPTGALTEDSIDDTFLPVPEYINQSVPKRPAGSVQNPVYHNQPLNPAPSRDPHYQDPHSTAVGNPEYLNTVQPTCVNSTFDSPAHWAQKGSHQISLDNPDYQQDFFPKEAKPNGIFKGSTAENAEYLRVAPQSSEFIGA

Consider `CC1(CO)CCN(c2cc(Nc3ccnc(-c4cnn(S(=O)(=O)C5CC5)c4)n3)ncc2C#Cc2cccc(C(=O)N3CCOCC3)c2)CC1` [Example 261, (3-((6-((2-(1-(Cyclopropylsulfonyl)-1H-pyrazol-4-yl)pyrimidin-4-yl)amino)-4-(4-(hydroxymethyl)-4-methylpiperidin-1-yl)pyridin-3-yl)ethynyl)phenyl)(morpholino)methanone], for which the IC50 in assay [1] (ATP at Km, read-out: IC50 L858R/T790M/C797S (nM), Km ATP) was 0.5 nM; in assay [1] (setting [6]), 0.6 nM; in assay [2] (setting [7]) it was 6.2 nM; in assay [2] (IC50 WT (nM), 100 μM ATP), 2500 nM; in assay [3] (setting [8]), 1.3 nM; in assay [3] (setting [9]), 4.2 nM. Besides, the IC50 worked out at 1.3 nM in assay [4] (setting [10]), 1 nM in assay [4] (setting [11]), 1.2 nM in assay [5] (setting [12]) and 0.6 nM in assay [5] (setting [13]).

On to `O=C(c1ccc(C#Cc2cnc(Nc3ccnc(-c4cnn(S(=O)(=O)C5CC5)c4)n3)cc2NC[C@H]2CC[C@H](CO)CC2)cc1)N1CCC(O)CC1` [Example 443, (4-((6-((2-(1-(Cyclopropylsulfonyl)-1H-pyrazol-4-yl)pyrimidin-4-yl)amino)-4-((((1 r,4r)-4-(hydroxymethyl)cyclohexyl)methyl)amino)pyridin-3-yl)ethynyl)phenyl)(4-hydroxypiperidin-1-yl)methanone], for which the IC50 is 4 nM in assay [1] (setting [6]); 1.2 nM in assay [1] (setting [14]); more than 10000 nM in assay [2] (IC50 WT (nM), 100 μM ATP); 4610 nM in assay [3] (setting [9]); 53.5 nM in assay [4] (setting [11]); 7.7 nM in assay [5] (setting [13]). In addition, in assay [5] (setting [15]), the IC50 is 4.3 nM.

As to `O=S(=O)(C1CC1)n1cc(-c2nccc(Nc3cc(N[C@H]4CC[C@@H](CO)CC4)c(C#Cc4cnn(CC(F)(F)F)c4)cn3)n2)cn1` [Example 340, ((1s,4s)-4-((2-((2-(1-(Cyclopropylsulfonyl)-1H-pyrazol-4-yl)pyrimidin-4-yl)amino)-5-((1-(2,2,2-trifluoroethyl)-1H-pyrazol-4-yl)ethynyl)pyridin-4-yl)amino)cyclohexyl)methanol], the IC50 in assay [1] (setting [6]) is 1.6 nM; in assay [1] (setting [14]), 0.7 nM; in assay [2] (IC50 WT (nM), 100 μM ATP), more than 10000 nM; in assay [2] (setting [16]), 26 nM; in assay [3] (setting [9]) it was 40.8 nM; in assay [3] (setting [17]), 10.5 nM. Moreover, the IC50 in assay [4] (setting [11]) came out at 7.3 nM; in assay [4] (setting [18]), 5 nM; in assay [5] (setting [13]), 2 nM; in assay [5] (setting [15]) it was 1.6 nM.

Regarding `CN(C)C[C@H]1CC[C@H](COc2cc(Nc3ccnc(-c4cnn(S(=O)(=O)C5CC5)c4)n3)ncc2C#Cc2cnn(CCF)c2)CC1` [Example 61, 2-(1-(Cyclopropylsulfonyl)-1H-pyrazol-4-yl)-N-(4-(((1r,4r)-4-((dimethylamino)methyl)cyclohexyl)methoxy)-5-((1-(2-fluoroethyl)-1H-pyrazol-4-yl)ethynyl)pyridin-2-yl)pyrimidin-4-amine], the IC50 was 0.1 nM in assay [1] (setting [19]); 4.2 nM in assay [2] (setting [20]); 3.1 nM in assay [3] (setting [21]); 0.5 nM in assay [4] (setting [22]); 0.5 nM in assay [5] (setting [23]).

Turning to `COC1CCN(c2cc(Nc3ccnc(-c4cnn(S(=O)(=O)C5CC5)c4)n3)ncc2C#Cc2cnn(C3CCOCC3)c2)CC1` [Example 98, 2-(1-(Cyclopropylsulfonyl)-1H-pyrazol-4-yl)-N-(4-(4-methoxypiperidin-1-yl)-5-((1-(tetrahydro-2H-pyran-4-yl)-1H-pyrazol-4-yl)ethynyl)pyridin-2-yl)pyrimidin-4-amine], the IC50 in assay [1] (setting [6]) is 9.9 nM; in assay [1] (setting [19]) it was 2.3 nM; in assay [2] (IC50 WT (nM), 100 μM ATP), more than 10000 nM; in assay [2] (setting [20]), 72 nM; in assay [3] (setting [9]) it was 101 nM; in assay [3] (setting [21]), 7.5 nM. For the same compound, the IC50 in assay [4] (setting [11]) came out at 21.1 nM; in assay [4] (setting [22]) it was 15.5 nM; in assay [5] (setting [13]), 2.1 nM; in assay [5] (setting [23]), 2.3 nM.

Consider `O=S(=O)(C1CC1)n1cc(-c2nccc(Nc3cc(N[C@H]4CC[C@@H](CO)CC4)c(C#Cc4cnn(CCF)c4)cn3)n2)cn1` [Example 379, ((1s,4s)-4-((2-((2-(1-(Cyclopropylsulfonyl)-1H-pyrazol-4-yl)pyrimidin-4-yl)amino)-5-((1-(2-fluoroethyl)-1H-pyrazol-4-yl)ethynyl)pyridin-4-yl)amino)cyclohexyl)methanol], for which the IC50 in assay [1] (setting [6]) is 0.8 nM; in assay [1] (setting [14]) it was 0.4 nM; in assay [2] (IC50 WT (nM), 100 μM ATP), more than 10000 nM; in assay [2] (setting [16]), 9.7 nM; in assay [3] (setting [9]) it was 30.1 nM; in assay [3] (setting [17]), 1.9 nM. The IC50 in assay [4] (setting [11]) is 3.9 nM; in assay [4] (setting [18]), 1.9 nM; in assay [5] (setting [13]), 0.7 nM; in assay [5] (setting [15]), 0.6 nM.

In the case of `COC1(C)CCN(c2cc(Nc3ccnc(-c4cnn(S(=O)(=O)C5CC5)c4)n3)ncc2C#Cc2cccnc2)CC1` [Example 281, 2-(1-(Cyclopropylsulfonyl)-1H-pyrazol-4-yl)-N-(4-(4-methoxy-4-methylpiperidin-1-yl)-5-(pyridin-3-ylethynyl)pyridin-2-yl)pyrimidin-4-amine], the IC50 was 22 nM in assay [1] (setting [6]); 192 nM in assay [2] (setting [7]); more than 10000 nM in assay [2] (IC50 WT (nM), 100 μM ATP); 6.3 nM in assay [3] (setting [8]); 287 nM in assay [3] (setting [9]); 17 nM in assay [4] (setting [10]). The IC50 in assay [4] (setting [11]) was found to be 88.5 nM; in assay [5] (setting [12]) it was 10.2 nM; in assay [5] (setting [13]), 82.1 nM.

As to `Cn1cc(C#Cc2cnc(Nc3ccnc(-c4cnn(S(=O)(=O)C5CC5)c4)n3)cc2N2CCC3(CC2)CC(C)(O)C3)cn1` [Example 13, 7-(2-((2-(1-(Cyclopropylsulfonyl)-1H-pyrazol-4-yl)pyrimidin-4-yl)amino)-5-((1-methyl-1H-pyrazol-4-yl)ethynyl)pyridin-4-yl)-2-methyl-7-azaspiro[3.5]nonan-2-ol], the IC50 in assay [1] (setting [6]) turned out to be 1.1 nM; in assay [2] (IC50 WT (nM), 100 μM ATP) it was 3090 nM; in assay [3] (setting [9]) it was 9.2 nM; in assay [4] (setting [11]) it was 3.3 nM; in assay [5] (setting [13]), 1.4 nM.

Take `COC1(O)CCN(c2cc(Nc3ccnc(-c4cnn(S(=O)(=O)C5CC5)c4)n3)ncc2C#CC2CCN(C)C2)CC1` (stereo not shown) [Example 371, 1-(2-((2-(1-(Cyclopropylsulfonyl)-1H-pyrazol-4-yl)pyrimidin-4-yl)amino)-5-((1-methylpyrrolidin-3-yl)ethynyl)pyridin-4-yl)-4-methoxypiperidin-4-ol]: the IC50 in assay [1] (setting [6]) worked out at 0.4 nM; in assay [1] (setting [14]) it was 0.1 nM; in assay [2] (IC50 WT (nM), 100 μM ATP), 3730 nM; in assay [2] (setting [16]), 9.4 nM; in assay [3] (setting [9]), 53.2 nM; in assay [3] (setting [17]), 3.3 nM. The IC50 in assay [4] (setting [11]) was found to be 2.5 nM; in assay [4] (setting [18]) it was 1.5 nM; in assay [5] (setting [13]), 0.3 nM; in assay [5] (setting [15]), 0.3 nM.

As to `O=S(=O)(C1CC1)n1cc(-c2nccc(Nc3cc(N4CCC5(CCCO5)CC4)c(C#Cc4cccnc4)cn3)n2)cn1` [Example 282, 2-(1-(Cyclopropylsulfonyl)-1H-pyrazol-4-yl)-N-(5-(pyridin-3-ylethynyl)-4-(1-oxa-8-azaspiro[4.5]decan-8-yl)pyridin-2-yl)pyrimidin-4-amine], the IC50 in assay [1] (setting [6]) was 7.1 nM; in assay [2] (setting [7]), 50.7 nM; in assay [2] (IC50 WT (nM), 100 μM ATP), more than 10000 nM; in assay [3] (setting [8]), 4.2 nM; in assay [3] (setting [9]), 39.2 nM; in assay [4] (setting [10]), 8.3 nM. In addition, the IC50 in assay [4] (setting [11]) turned out to be 28.6 nM; in assay [5] (setting [12]) it was 5.5 nM; in assay [5] (setting [13]), 23.8 nM.
